Measured values reported in patent publication US20250049787A1, “TREATMENT FOR ACUTE MYELOID LEUKEMIA OR LYMPHOMA” (UNIVERSITY HEALTH NETWORK, priority 2021, published 2025).
Where a name gives a salt, the structure may show the parent alone.

Tests used:
TAK1/MAP3K7 = molecular target: T1, TAK1/MAP3K7 (Homo sapiens, UniProt O43318); test: Radiometric HotSpot kinase assay, TAK1; assay type: biochemical; settings: ATP 20 μM; casein 1 mg/mL
T1 construct: purchased Reaction Biology Corp. (Malvern, PA, USA)
Method: (§1) Kinase IC50 values were determined by Reaction Biology Corp. (Malvern, PA, USA) in the Radiometric HotSpot™ Assay using recombinantly expressed kinase enzymes. Compound (I) was tested in a 10-dose IC50 curve in duplicate. Enzymes were tested at the Km [ATP] for each enzyme using the Reaction Biology binning structure. Kinase reactions were initiated by the addition of protein or peptide substrate and [γ-^33P]-adenosine triphosphate (ATP). Phosphorylated substrates were captured by spotting of the reaction mix on filter membranes, and enzymatic activity was quantified by liquid scintillation counting. Substrates and ATP concentrations are as follows: • FLT3: Peptide substrate, [EAIYAAPFAKKK], 5 μM: ATP 50 μM • FLT3-ITD (internal tandem duplication): Peptide substrate, [EAIYAAPFAKKK], 20 μM: ATP, 30 μM • FLT3 (D835Y): Peptide substrate, [EAIYAAPFAKKK], 5 μM: ATP 20 μM • TAK1: Casein, 1 mg/mL: ATP, 20 μM

FLT3 (D835Y) = molecular target: T2, FLT3 (D835Y) (Homo sapiens, UniProt P36888, D835Y); test: Radiometric HotSpot kinase assay, FLT3 (D835Y); assay type: biochemical; settings: ATP 20 μM; peptide substrate 5 μM
T2 construct: purchased Reaction Biology Corp. (Malvern, PA, USA)
Method: as §1

[1] = molecular target: FLT3-ITD (internal tandem duplication) (Homo sapiens, UniProt P36888); test: Radiometric HotSpot kinase assay, FLT3-ITD; assay type: biochemical; settings: ATP 30 μM; peptide substrate 20 μM
Method: as §1

[2] = system: FLT3-ITD-expressing 32D cells (20 ng/ml mouse IL-3); test: Growth inhibition, 32D transfectants with mouse IL-3; assay type: cell-based; settings: 32D transfectant FLT3-ITD
Method: (§2) Cell lines were obtained from American Type Culture Collection (ATCC) and maintained according to the supplier's instructions, and from Dr. Mark Minden (Princess Margaret Cancer Centre, Toronto, Canada). Short tandem repeat (STR) profiling was used to verify authenticity of the cell lines. Peripheral blood from healthy human donors was obtained from the Hematology Malignancy Tissue Bank at the University Health Network. Peripheral blood mononuclear cells (PBMC) were prepared from the blood by density gradient centrifugation using Ficoll-Paque PLUS by manufacturer's instructions (GE Healthcare Life Sciences). […] Compound (I) tartrate was prepared as a 10 mM stock solution in 100% DMSO. The stock solution was diluted with RPMI-1640 (Invitrogen) containing 10% FBS (fetal bovine serum) such that the final concentrations ranged from 300 fM to 300 μM. Aliquots (20 μL) from each concentration were overlaid to 180 μL of pre-seeded cells to achieve final concentrations of 30 fM to 30 μM. After 3 days, cell growth in each well was assessed by Alamar Blue assay reagent (Invitrogen). Raw fluorescence (λEM=590 nm) values were adjusted by subtracting the average of the baseline readings from untreated cells assessed one day after cell seeding. Relative cell growth was calculated by comparing to DMSO-treated cells. […]

c-KIT (CD117) = test: Flow cytometry, cell surface c-KIT in primary human AML cells; assay type: cell-based; settings: FLT3-ITD positive primary AML cells, viable CD14− blasts, 48 and 72 hours, dose-dependent
Method: Patient samples were obtained from Dr. Mark Minden (Princess Margaret Cancer Centre, Toronto, Ontario, Canada). FLT3-ITD positive AML cells were treated with the indicated concentrations of Compound (I) for 48 and 72 hours at 37° C. and 5% CO2 and stained with APC-CD45, PECy7-CD38, APC/Fire 750-CD33, PerCP-CD14, PE-FLT3 (Beckman Coulter, Cat. IM2234U), PE/Dazzle 594-CD117 (BioLegend, Cat. #313226) or isotype control antibodies and analyzed on a BD LSRFortessa II flow cytometry analyzer. Data were analyzed using FlowJo software and representative data are shown. Compound (I) treatment increases the cell surface expression of FLT3 and c-KIT in a dose-dependent manner in viable CD14^− AML blast cells. Similar results were obtained in additional FLT3-ITD positive primary AML samples (data not shown).

FLT3 = molecular target: T3, FLT3 (Homo sapiens, UniProt P36888); test: Radiometric HotSpot kinase assay, FLT3; assay type: biochemical; settings: ATP 50 μM; peptide substrate 5 μM
T3 construct: purchased Reaction Biology Corp. (Malvern, PA, USA)
Method: as §1

[3] = system: FLT3-ITD-expressing 32D cells; test: Growth inhibition, 32D transfectants; assay type: cell-based; settings: 32D transfectant FLT3-ITD, without cytokines
Method: as §2

[4] = system: Wild-type FLT3-expressing 32D cells; test: Growth inhibition, 32D transfectants; assay type: cell-based; settings: 32D transfectant wild-type FLT3, 50 ng/ml human FLT3 ligand
Method: as §2

T1 sequence (O43318 1-303 limits assumed): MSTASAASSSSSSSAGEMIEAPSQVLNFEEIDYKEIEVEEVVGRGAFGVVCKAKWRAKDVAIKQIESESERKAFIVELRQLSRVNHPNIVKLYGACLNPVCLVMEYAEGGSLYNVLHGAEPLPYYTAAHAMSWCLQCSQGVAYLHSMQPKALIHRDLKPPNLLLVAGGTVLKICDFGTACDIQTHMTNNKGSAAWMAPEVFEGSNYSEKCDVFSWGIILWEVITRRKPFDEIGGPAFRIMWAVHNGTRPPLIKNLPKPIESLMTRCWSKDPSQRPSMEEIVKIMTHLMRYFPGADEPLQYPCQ

In the case of `CN1CCN(c2ccc3nc(-c4c(N)c5ccsc5[nH]c4=O)[nH]c3c2)CC1` [Compound (I) tartrate, 4-amino-5-(6-(4-methylpiperazin-1-yl)-1H-benzo[d]imidazol-2-yl)thieno[2,3-b]pyridin-6(7H)-one], the IC50 (TAK1/MAP3K7) is reported as 18 nM, the IC50 (FLT3 (D835Y)) is reported as 0.023 nM and the IC50 [1] is reported as 0.13 nM. The IC50 [2] was 1440 nM, the “cell surface expression of c-KIT (CD117)” value (c-KIT (CD117)) was “increases” and the IC50 (FLT3) was 0.043 nM. It also gave an IC50 [3] of 6.3 nM and an IC50 [4] of 1650 nM.
